Measurements from US12187773B2, “Modified GIP peptide analogues” (Antag Therapeutics ApS, priority 2018, dated 2025).
*1 amine or outer side, *2 acyl side, *3 side chain or, on linkers, in order; H or OH if unused. Where a SMILES comes first, the peptide text is derived from it. Side-chain parts run from the residue outwards. The star is where a group is joined. C16 diacid = O=C(O)CCCCCCCCCCCCCCC(=O)*; γGlu = O=C(O)[C@H](CCC(=O)[*:2])N[*:1]; AEEA = NCCOCCOCC(=O)O

Tests used:
Type in all cases: cell-based
human GIP receptor [1] = target: T1, human GIP receptor (Homo sapiens, UniProt P48546); test: cAMP antagonism (CisBio cAMP Dynamic 2 HTRF assay); set-up: pCMV-Script vector; conditions: Table 1C, CisBio, HEK-293 cells; for IC50: cAMP antagonism, nM (IC50), agonist GIP1-42 at EC50
T1 sequence (P48546 22-466): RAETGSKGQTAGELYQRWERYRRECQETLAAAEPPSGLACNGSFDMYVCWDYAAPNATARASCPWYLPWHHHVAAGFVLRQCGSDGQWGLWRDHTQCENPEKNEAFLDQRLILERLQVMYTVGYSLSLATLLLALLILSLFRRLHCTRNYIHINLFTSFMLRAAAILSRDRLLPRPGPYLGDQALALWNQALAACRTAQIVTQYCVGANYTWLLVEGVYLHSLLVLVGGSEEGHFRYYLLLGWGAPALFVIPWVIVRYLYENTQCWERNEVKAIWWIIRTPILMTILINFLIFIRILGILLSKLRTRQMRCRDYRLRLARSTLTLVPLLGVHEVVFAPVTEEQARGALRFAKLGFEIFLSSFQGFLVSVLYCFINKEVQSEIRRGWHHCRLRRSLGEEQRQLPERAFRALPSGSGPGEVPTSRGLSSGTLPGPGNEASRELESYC
Summary of the method: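 Four-parameter fits of cAMP dose-response gave pIC50. cAMP fall was quantified by HTRF competition, ratio 665/620 nm after 60 min at room temperature, against a cAMP standard curve.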

human GIP receptor [2] = target: T1, human GIP receptor; test: cAMP accumulation, agonism (DiscoveRx HitHunter cAMP XS assay); set-up: host or cells: COS-7 (transient, calcium phosphate; pCMV-Script vector); conditions: for Emax: COS-7, read-out: cAMP agonism, Emax; for cAMP agonism, Emax: Table 1B, DiscoveRx, COS-7 cells
Summary of the method: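 cAMP accumulation measured by HitHunter cAMP XS in COS-7 cells transiently expressing human GIP receptor, after 30 min in HBS with 1 mM IBMX at 37 °C. Antagonists preincubated 10 min before GIP giving 50-80% of maximum, then 20 min more; agonist mode used 30 min ligand exposure.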

human GIP receptor [3] = target: T1, human GIP receptor; test: cAMP agonism (CisBio cAMP Dynamic 2 HTRF assay); conditions: HEK293, read-out: cAMP agonism, % Efficacy, Table 1C, HEK-293 cells
Method: To test for agonistic properties at the GIP receptor, compounds were diluted and added to cells as described above and incubated for 30 min at 37° C. The resulting increase in intracellular cAMP was determined using the CisBio cAMP Dynamic 2 HTRF Assay Kit as described above.

human GIP receptor [4] = target: T1, human GIP receptor; test: cAMP accumulation, antagonism (DiscoveRx HitHunter cAMP XS assay); set-up: host or cells: COS-7 (transient, calcium phosphate; pCMV-Script vector); conditions: Table 1B, DiscoveRx; for IC50: cAMP antagonism, nM (IC50), transiently transfected COS-7 cells; for cAMP antagonism, % inhib: COS-7 cells, % inhibition of Emax
Method: Transient transfected COS-7 cells expressing the human GIP receptor were seeded in white 96-well plates with a density of 3.5*10^4/well. The day after, the cells were washed twice with Hepes buffered saline (HBS) buffer and incubated with HBS and 1 mM 3-isobutyl-1-methylxanthine (IBMX) for 30 min at 37° C. To test for agonistic properties, ligands were added and incubated for 30 min at 37° C. In order to test for antagonistic properties, the cells were preincubated with the antagonists for 10 min prior to the addition of the agonist and subsequent incubated for 20 additional min. The HitHunter™ cAMP XS assay (DiscoveRx) was carried out according to the manufacturer's instructions.
In order to develop a GIP receptor antagonist with improved antagonistic properties, individual amino acid substitutions were conducted on GIP(3-30)NH2 and in particular at positions: 16, 18, 30 or 3, 16, 18, 30. The obtained peptides were lipidated at position 18 directly or via a linker. Both the agonistic and antagonistic profiles of the compounds were tested in cAMP accumulation experiments done in transiently transfected COS-7 cells expressing the human GIP receptor. To investigate if these mutated analogues still retained their antagonistic properties, their ability to inhibit a GIP-mediated cAMP response corresponding to 50-80% of maximum activation was examined.

Structure (SMILES)	cAMP antagonism, % inhib (human GIP receptor [1]) [%]	IC50 (human GIP receptor [1]) [nM]	Emax (human GIP receptor [2]) [%]	Emax (human GIP receptor [3]) [%]	IC50 (human GIP receptor [4]) [nM]	cAMP agonism, Emax (human GIP receptor [2])	cAMP antagonism, % inhib (human GIP receptor [4]) [%]
CC[C@H](C)[C@H](NC(=O)[C@H](CO)NC(=O)[C@H](Cc1ccc(O)cc1)NC(=O)[C@H](CC(=O)O)NC(=O)[C@H](CO)NC(=O)[C@@H](NC(=O)[C@H](Cc1ccccc1)NC(=O)[C@@H](NC(=O)CNC(=O)[C@@H](N)CO)[C@@H](C)O)[C@@H](C)CC)C(=O)N[C@@H](C)C(=O)N[C@@H](CCSC)C(=O)N[C@@H](CC(=O)O)C(=O)N[C@@H](CCCNC(=N)N)C(=O)N[C@H](C(=O)N[C@@H](CCCCNC(=O)CCCCCCCCCCCCCCC(=O)O)C(=O)N[C@@H](CCC(N)=O)C(=O)N[C@@H](CCC(N)=O)C(=O)N[C@@H](CC(=O)O)C(=O)N[C@@H](Cc1ccccc1)C(=O)N[C@H](C(=O)N[C@@H](CC(N)=O)C(=O)N[C@@H](Cc1c[nH]c2ccccc12)C(=O)N[C@@H](CC(C)C)C(=O)N[C@@H](CC(C)C)C(=O)N[C@@H](C)C(=O)N[C@@H](CCC(N)=O)C(=O)N[C@@H](CCCNC(=N)N)C(=O)O)C(C)C)[C@@H](C)CC [AT259] (H-SGTFISDYSIAMDRIK(C16 diacid)QQDFVNWLLAQR-OH; N-terminus assumed)	72	58.4	20	9	19	–	–
CC[C@H](C)[C@H](NC(=O)[C@H](CO)NC(=O)[C@H](Cc1ccc(O)cc1)NC(=O)[C@H](CC(=O)O)NC(=O)[C@H](CO)NC(=O)[C@@H](NC(=O)[C@H](Cc1ccccc1)NC(=O)[C@@H](NC(=O)CNC(=O)CN)[C@@H](C)O)[C@@H](C)CC)C(=O)N[C@@H](C)C(=O)N[C@@H](CCSC)C(=O)N[C@@H](CC(=O)O)C(=O)N[C@@H](CCCNC(=N)N)C(=O)N[C@H](C(=O)N[C@@H](CCCCNC(=O)COCCOCCNC(=O)COCCOCCNC(=O)CC[C@H](NC(=O)CCCCCCCCCCCCCCC(=O)O)C(=O)O)C(=O)N[C@@H](CCC(N)=O)C(=O)N[C@@H](CCC(N)=O)C(=O)N[C@@H](CC(=O)O)C(=O)N[C@@H](Cc1ccccc1)C(=O)N[C@H](C(=O)N[C@@H](CC(N)=O)C(=O)N[C@@H](Cc1c[nH]c2ccccc12)C(=O)N[C@@H](CC(C)C)C(=O)N[C@@H](CC(C)C)C(=O)N[C@@H](C)C(=O)N[C@@H](CCC(N)=O)C(=O)N[C@@H](CCCNC(=N)N)C(=O)O)C(C)C)[C@@H](C)CC [AT275] (H-GGTFISDYSIAMDRIK([AEEA-AEEA-γGlu-C16 diacid])QQDFVNWLLAQR-OH; N-terminus assumed)	66	126	5	5	43	–	–
CC[C@H](C)[C@H](NC(=O)[C@H](CO)NC(=O)[C@H](Cc1ccc(O)cc1)NC(=O)[C@H](CC(=O)O)NC(=O)[C@H](CO)NC(=O)[C@@H](NC(=O)[C@H](Cc1ccccc1)NC(=O)[C@@H](NC(=O)CNC(=O)[C@@H]1CCCN1)[C@@H](C)O)[C@@H](C)CC)C(=O)N[C@@H](C)C(=O)N[C@@H](CCSC)C(=O)N[C@@H](CC(=O)O)C(=O)N[C@@H](CCCNC(=N)N)C(=O)N[C@H](C(=O)N[C@@H](CCCCNC(=O)COCCOCCNC(=O)CC[C@H](NC(=O)CCCCCCCCCCCCCCC(=O)O)C(=O)O)C(=O)N[C@@H](CCC(N)=O)C(=O)N[C@@H](CCC(N)=O)C(=O)N[C@@H](CC(=O)O)C(=O)N[C@@H](Cc1ccccc1)C(=O)N[C@H](C(=O)N[C@@H](CC(N)=O)C(=O)N[C@@H](Cc1c[nH]c2ccccc12)C(=O)N[C@@H](CC(C)C)C(=O)N[C@@H](CC(C)C)C(=O)N[C@@H](C)C(=O)N[C@@H](CCC(N)=O)C(=O)N[C@@H](CCCNC(=N)N)C(N)=O)C(C)C)[C@@H](C)CC [AT512] (HELM PEPTIDE1{P.G.T.F.I.S.D.Y.S.I.A.M.D.R.I.K.Q.Q.D.F.V.N.W.L.L.A.Q.R.[am]}|PEPTIDE2{[O=C(O)CCCCCCCCCCCCCCC(=O)[*:2]].[gGlu].[O=C(COCCOCCN[*:1])[*:2]]}$PEPTIDE1,PEPTIDE2,16:R3-3:R2$$$V2.0; N-terminus assumed)	73	79.4	–	0	–	No Agonism	80
CC[C@H](C)[C@H](NC(=O)[C@H](CO)NC(=O)[C@H](Cc1ccc(O)cc1)NC(=O)[C@H](CC(=O)O)NC(=O)[C@H](CO)NC(=O)[C@@H](NC(=O)[C@H](Cc1ccccc1)NC(=O)[C@@H](NC(=O)CNC(=O)[C@@H](N)CCC(=O)O)[C@@H](C)O)[C@@H](C)CC)C(=O)N[C@@H](C)C(=O)N[C@@H](CCSC)C(=O)N[C@@H](CC(=O)O)C(=O)N[C@@H](CCCNC(=N)N)C(=O)N[C@H](C(=O)N[C@@H](CCCCNC(=O)COCCOCCNC(=O)CC[C@H](NC(=O)CCCCCCCCCCCCCCCCC(=O)O)C(=O)O)C(=O)N[C@@H](CCC(N)=O)C(=O)N[C@@H](CCC(N)=O)C(=O)N[C@@H](CC(=O)O)C(=O)N[C@@H](Cc1ccccc1)C(=O)N[C@H](C(=O)N[C@@H](CC(N)=O)C(=O)N[C@@H](Cc1c[nH]c2ccccc12)C(=O)N[C@@H](CC(C)C)C(=O)N[C@@H](CC(C)C)C(=O)N[C@@H](C)C(=O)N[C@@H](CCC(N)=O)C(=O)N[C@@H](CCCNC(=N)N)C(N)=O)C(C)C)[C@@H](C)CC [AT376] (HELM PEPTIDE1{E.G.T.F.I.S.D.Y.S.I.A.M.D.R.I.K.Q.Q.D.F.V.N.W.L.L.A.Q.R.[am]}|PEPTIDE2{[O=C(O)CCCCCCCCCCCCCCCCC(=O)[*:2]].[gGlu].[O=C(COCCOCCN[*:1])[*:2]]}$PEPTIDE1,PEPTIDE2,16:R3-3:R2$$$V2.0; N-terminus assumed)	87	6.81	–	0	19	No Agonism	90
CC[C@H](C)[C@H](NC(=O)[C@H](CO)NC(=O)[C@H](Cc1ccc(O)cc1)NC(=O)[C@H](CC(=O)O)NC(=O)[C@H](CO)NC(=O)[C@@H](NC(=O)[C@H](Cc1ccccc1)NC(=O)[C@@H](NC(=O)CNC(=O)CN)[C@@H](C)O)[C@@H](C)CC)C(=O)N[C@@H](C)C(=O)N[C@@H](CCSC)C(=O)N[C@@H](CC(=O)O)C(=O)N[C@@H](CCCNC(=N)N)C(=O)N[C@H](C(=O)N[C@@H](CCCCNC(=O)COCCOCCNC(=O)CC[C@H](NC(=O)CCCCCCCCCCCCCCC(=O)O)C(=O)O)C(=O)N[C@@H](CCC(N)=O)C(=O)N[C@@H](CCC(N)=O)C(=O)N[C@@H](CC(=O)O)C(=O)N[C@@H](Cc1ccccc1)C(=O)N[C@H](C(=O)N[C@@H](CC(N)=O)C(=O)N[C@@H](Cc1c[nH]c2ccccc12)C(=O)N[C@@H](CC(C)C)C(=O)N[C@@H](CC(C)C)C(=O)N[C@@H](C)C(=O)N[C@@H](CCC(N)=O)C(=O)N[C@@H](CCCNC(=N)N)C(N)=O)C(C)C)[C@@H](C)CC [AT508] (HELM PEPTIDE1{G.G.T.F.I.S.D.Y.S.I.A.M.D.R.I.K.Q.Q.D.F.V.N.W.L.L.A.Q.R.[am]}|PEPTIDE2{[O=C(O)CCCCCCCCCCCCCCC(=O)[*:2]].[gGlu].[O=C(COCCOCCN[*:1])[*:2]]}$PEPTIDE1,PEPTIDE2,16:R3-3:R2$$$V2.0; N-terminus assumed)	89	–	–	0	23	No Agonism	100
